Test results from PMC4589873, “A pain-inducing centipede toxin targets the heat activation machinery of nociceptor TRPV1” (Nature Communications, 2015).
“Also recorded” adds a separate entry of the source. Where a SMILES comes first, the peptide text is derived from it. Bridges are numbered along the chain shown (N, C = ends).

Experiments:
[1] = target: T1, mTRPV1 (Mus musculus, UniProt Q704Y3); assay: Whole-cell patch-clamp of mTRPV1 expressed in HEK293 cells; assay type: cell-based
T1 construct: expressed in transfected cells; host or cells: HEK-293T
T1 sequence (Q704Y3 whole entry): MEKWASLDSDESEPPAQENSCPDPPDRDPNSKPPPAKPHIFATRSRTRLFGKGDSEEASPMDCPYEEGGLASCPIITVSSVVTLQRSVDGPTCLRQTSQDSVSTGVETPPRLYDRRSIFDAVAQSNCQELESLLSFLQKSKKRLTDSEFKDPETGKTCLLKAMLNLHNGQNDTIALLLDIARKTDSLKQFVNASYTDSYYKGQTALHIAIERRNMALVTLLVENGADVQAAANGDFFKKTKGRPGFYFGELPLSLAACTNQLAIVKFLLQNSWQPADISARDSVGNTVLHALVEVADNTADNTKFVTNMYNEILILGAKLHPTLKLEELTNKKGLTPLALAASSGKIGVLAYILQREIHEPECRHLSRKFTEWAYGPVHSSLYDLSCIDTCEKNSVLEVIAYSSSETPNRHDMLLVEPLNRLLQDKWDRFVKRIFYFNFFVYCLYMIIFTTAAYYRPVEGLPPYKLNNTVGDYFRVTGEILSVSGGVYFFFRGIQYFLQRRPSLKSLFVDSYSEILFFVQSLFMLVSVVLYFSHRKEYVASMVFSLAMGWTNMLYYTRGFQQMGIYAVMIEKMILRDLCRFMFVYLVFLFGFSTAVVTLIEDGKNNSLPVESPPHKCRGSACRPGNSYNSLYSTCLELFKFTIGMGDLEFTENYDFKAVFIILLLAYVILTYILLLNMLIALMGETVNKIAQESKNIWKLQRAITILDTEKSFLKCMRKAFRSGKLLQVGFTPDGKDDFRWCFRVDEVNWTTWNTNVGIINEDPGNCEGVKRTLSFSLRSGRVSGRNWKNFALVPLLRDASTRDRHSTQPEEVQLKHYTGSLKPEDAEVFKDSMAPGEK
From the text: TRPV1 and TRPV3 chimeras used in this study were generated by the overlapping extension method[54] and confirmed by DNA sequencing, as described previously. Briefly, to generate V1/3S, the primer pairs (5′-[…]-3′and 5′-[…]-3′) were used. To generate other TRPV1/TRPV3 chimeras, the enzyme cutting sites by MluI were made by the primer pair (5′-[…]-3′ and 5′-[…]-3′) for TRPV1 and the primer pair (5′-[…]-3′ and 5′-[…]-3′) for TRPV3. The enzyme cutting sites by PvuI were made by the primer pair (5′-[…]-3′ and 5′-[…]-3′) for TRPV1 and the primer pair (5′-[…]-3′ and 5′-[…]-3′) for TRPV3. The enzyme cutting sites by BsiWI were made by the primer pair (5′-[…]-3′ and 5′-[…]-3′) for TRPV1 and the primer pair (5′-[…]-3′ and 5′-[…]-3′) for TRPV3. V1/3M were generated by enzyme cut and paste between MluI and PvuI sites, while V1/3L were generated by enzyme cut and paste between MluI and BsiWI sites. V1_S1S2_1, V1_S1S2_3 and V1_S1S2_3 were generated as previously reported. All mTRPV1 point mutations were constructed using the QuickChange II XL site-directed mutagenesis kit following the manufacturer’s instruction. These point mutations were sequenced to confirm that appropriate constructs were made. HEK-293T cells were cultured and transiently transfected using Lipofectamine 2,000 (Invitrogen) as previously described.
(§1) As described in details in a previous report, macroscopic currents (in whole-cell, inside-out or outside-out configuration) as well as single-channel currents were recorded using a HEKA EPC10 amplifier with the PatchMaster software (HEKA). Both pipette solution and bath solution contained 130 mM NaCl, 3 mM HEPES and 0.2 mM EDTA (pH 7.2). All recordings were performed at room temperature unless otherwise stated. A holding potential of 0 mV was used from which a testing pulse to +80 mV was applied. Statistical difference was determined using the Student’s t-test, and indicated by ** when reaching the significance level P<0.001.

[2] = system: TRPV1; assay: Single-channel recording of TRPV1; assay type: cell-based; details: single-channel analysis
Experimental: as §1

[3] = system: hTRPV1; assay: Whole-cell recording of hTRPV1; assay type: cell-based, human
Experimental: as §1
Supplementary Figure 3. […] (a) A representative whole-cell recording of hTRPV1 treated with RhTx or capsaicin. (b) Comparison of the dose-response relationships between hTRPV1 and mTRPV1. […]
mTRPV2 (c), mTRPV3 (d) and mTRPV4 (e). (f) Treatment with 10 μM RhTx (red traces) […]
(1 picture or pasted object on this page, not shown here)

[4] = system: mTRPV2; assay: Selectivity recording on mTRPV2; assay type: cell-based, mouse; details: RhTx at 10 μM
Experimental: as §1
(§2) Supplementary Figure 3. […]
(§3) mTRPV2 (c), mTRPV3 (d) and mTRPV4 (e). (f) Treatment with 10 μM RhTx (red traces)

[5] = system: mTRPV3; assay: Selectivity recording on mTRPV3; assay type: cell-based, mouse; details: RhTx at 10 μM
Experimental: as §1, §2, §3

[6] = system: mTRPV4; assay: Selectivity recording on mTRPV4; assay type: cell-based, mouse; details: RhTx at 10 μM
Experimental: as §1, §2, §3

[7] = system: voltage-gated Na channels; assay: Selectivity recording on voltage-gated Na channels; assay type: cell-based; details: 10 μM RhTx compared to toxin-free treatment
Experimental: as §2, §3

[8] = system: voltage-gated K channels; assay: Selectivity recording on voltage-gated K channels; assay type: cell-based; details: 10 μM RhTx compared to toxin-free treatment
Experimental: as §2, §3

[9] = system: voltage-gated Ca channels; assay: Selectivity recording on voltage-gated Ca channels; assay type: cell-based; details: 10 μM RhTx compared to toxin-free treatment
Experimental: as §2, §3

[10] = system: WT mice; assay: Paw-licking assay, intraplantar injection; assay type: in vivo, mouse; details: 1 μmol per paw in 100 μl saline, 40 min observation
Experimental: (§4) In vivo effects of RhTx on WT mice or Trpv1^−/− mice were examined according to protocols described previously. For the paw-licking assay, pain was induced in mice by intraplantar injection of 0.1% formalin, capsaicin (1 μmol per paw) or RhTx (1 μmol per paw). Each of the testing materials was dissolved in 100 μl saline. Control mice received the same volume of saline. Injected mice were placed individually into open polyvinyl cages (20 × 40 × 15 cm). Time spent licking the injected paw was recorded by a digital video camera during the following 40 min. For recording colonic temperature from WT or Trpv1^−/− mice, mice equipped with a copper-constantan thermocouple were individually placed in open polyvinyl cages. A data logger was connected to the thermocouple. Mice were injected intraperitoneally with 100 μl saline containing capsaicin or RhTx. The dose of capsaicin or RhTx was 10 μmol kg^−1 for these experiments. Mice in the control group received the same volume of saline.
Supplementary Figure 1. Centipede crude venom -induced paw licking. Pain behavior was induced in mice b y intraplan tar injection of centipede crude venom. After crude venom injection, mice were immediately placed individually into open polyvinyl cages (20 × 40 × 15 cm). The time spent licking the injected paw was recorded by digital video camera during 0- 10 minutes […]

[11] = system: Trpv1−/− knockout mice; assay: Paw-licking assay in TRPV1 knockout mice; assay type: in vivo, mouse; details: intraplantar, 1 μmol per paw
Experimental: as §4

CC[C@H](C)[C@H](NC(=O)[C@@H]1CSSC[C@@H]2NC(=O)[C@H]([C@@H](C)O)NC(=O)[C@H](C(C)C)NC(=O)CNC(=O)[C@H](CC(N)=O)NC(=O)[C@@H](NC(=O)[C@@H]3CCCN3C(=O)[C@H](CC(N)=O)NC(=O)[C@H](CC(N)=O)NC(=O)[C@@H](N)CC(C)C)CSSC[C@H](NC(=O)[C@H](CCCNC(=N)N)NC(=O)[C@H](Cc3ccc(O)cc3)NC(=O)CNC(=O)[C@H](CO)NC(=O)[C@@H]3CCCN3C2=O)C(=O)N[C@@H](CO)C(=O)N[C@@H]([C@@H](C)CC)C(=O)N[C@@H](C(C)C)C(=O)N[C@@H](CC(=O)O)C(=O)N[C@@H](CCCCN)C(=O)N[C@@H](CCC(N)=O)C(=O)N1)C(=O)N[C@@H](CCCCN)C(=O)N[C@@H](CCCCN)C(=O)N[C@@H](CCC(=O)O)C(=O)O [RhTx] (H-LNNPCNGVTCPSGYRCSIVDKQCIKKE-OH; disulfide 5-16, 10-23; N-terminus and C-terminus assumed)
activation of mouse TRPV1 [1]: strongly activated
EC50 ([1]; SEM): 522 ± 162 nM
Hill slope ([1]; whole-cell mTRPV1 currents, Hill fit, average±s.e.m., n=10, SEM): 1.17±0.37
inward single-channel current amplitude compared with capsaicin-elicited currents [2]: noticeable reduction
open probability [2]: near unity
activation of human TRPV1 [3]: strongly activated
response of TRPV2 [4]: no detectable effect; also recorded: no discernable response
response of TRPV3 [5]: no detectable effect; also recorded: no discernable response
response of TRPV4 [6]: no detectable effect; also recorded: no discernable response
effect on voltage-gated Na channels [7]: no detectable effect; also recorded: no discernable response
effect on voltage-gated K channels [8]: no detectable effect; also recorded: no discernable response
effect on voltage-gated Ca channels [9]: no detectable effect; also recorded: no discernable response
pain behaviour (paw licking) [10]: elicited similar pain behaviour
pain behaviour (paw licking) in knockout mice [11]: ineffective
